Source: the supplement of paper PMC10307832

How the values were obtained:
Assay in all cases: relative viability (nuclei count vs DMSO), 5 days (fraction); higher = more cells survive
LCLC-97TM1 = test system: LCLC-97TM1
How it was run: (§1)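 Relative viability equals treated-well nuclei counts divided by vehicle-well nuclei counts. Counts came from 4× images of lung cancer cell lines grown in 1536-well plates for 5 days after pin-tool dosing on the day after seeding. Dosing used one drug alone or a fixed anchor-drug dose plus five library-drug doses (not always all listed) in √10 steps, and values are medians of duplicate plates.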

NCI-H1355 = test system: NCI-H1355
How it was run: as §1

HCC-44 = test system: HCC-44
How it was run: as §1

NCI-H2405 = test system: NCI-H2405
How it was run: as §1

NCI-H23 = test system: NCI-H23
How it was run: as §1

UMC-11 = test system: UMC-11
How it was run: as §1

NCI-H322M = test system: NCI-H322M
How it was run: as §1

NCI-H1944 = test system: NCI-H1944
How it was run: as §1

NCI-H1395 = test system: NCI-H1395
How it was run: as §1

NCI-H1651 = test system: NCI-H1651
How it was run: as §1

EMC-BAC-2 = test system: EMC-BAC-2
How it was run: as §1

NCI-H650 = test system: NCI-H650
How it was run: as §1

SK-MES-1 = test system: SK-MES-1
How it was run: as §1

NCI-H2085 = test system: NCI-H2085
How it was run: as §1

H3255 = test system: H3255
How it was run: as §1

NCI-H2087 = test system: NCI-H2087
How it was run: as §1

NCI-H1793 = test system: NCI-H1793
How it was run: as §1

HCC-827 = test system: HCC-827
How it was run: as §1

LCLC-103H = test system: LCLC-103H
How it was run: as §1

NCI-H1563 = test system: NCI-H1563
How it was run: as §1

NCI-H520 = test system: NCI-H520
How it was run: as §1

EPLC-272H = test system: EPLC-272H
How it was run: as §1

NCI-H1993 = test system: NCI-H1993
How it was run: as §1

Clc1ccc(Nc2nnc(Cc3ccncc3)c3ccccc23)cc1 [Vatalanib] + Cc1nc(NC(=O)N2CCC[C@H]2C(N)=O)sc1-c1ccnc(C(C)(C)C(F)(F)F)c1 [Alpelisib] (partner 2 µM)
relative viability (LCLC-97TM1; first compound 0.04 µM): 0.248
relative viability (LCLC-97TM1; first compound 0.1265 µM): 0.2
relative viability (LCLC-97TM1; first compound 0.4 µM): 0.262
relative viability (LCLC-97TM1; first compound 1.265 µM): 0.178
relative viability (LCLC-97TM1; first compound 4 µM): 0.353
relative viability (NCI-H1355; first compound 0.04 µM): 0.821
relative viability (NCI-H1355; first compound 0.1265 µM): 0.747
relative viability (NCI-H1355; first compound 0.4 µM): 0.87
relative viability (NCI-H1355; first compound 1.265 µM): 0.691
relative viability (NCI-H1355; first compound 4 µM): 0.711
relative viability (HCC-44; first compound 0.04 µM): 0.803
relative viability (HCC-44; first compound 0.1265 µM): 0.815
relative viability (HCC-44; first compound 0.4 µM): 0.777
relative viability (HCC-44; first compound 1.265 µM): 0.81
relative viability (HCC-44; first compound 4 µM): 0.745
relative viability (NCI-H2405; first compound 0.04 µM): 0.959
relative viability (NCI-H2405; first compound 0.1265 µM): 0.769
relative viability (NCI-H2405; first compound 1.265 µM): 0.795
relative viability (NCI-H2405; first compound 4 µM): 0.773
relative viability (NCI-H23; first compound 0.04 µM): 0.649
relative viability (NCI-H23; first compound 0.1265 µM): 0.672
relative viability (NCI-H23; first compound 0.4 µM): 0.78
relative viability (NCI-H23; first compound 1.265 µM): 0.775
relative viability (NCI-H23; first compound 4 µM): 0.75
relative viability (UMC-11; first compound 0.04 µM): 0.913
relative viability (UMC-11; first compound 0.1265 µM): 0.932
relative viability (UMC-11; first compound 0.4 µM): 0.816
relative viability (UMC-11; first compound 1.265 µM): 0.979
relative viability (UMC-11; first compound 4 µM): 1.07
relative viability (NCI-H322M; first compound 0.04 µM): 0.775
relative viability (NCI-H322M; first compound 0.1265 µM): 0.709
relative viability (NCI-H322M; first compound 0.4 µM): 0.75
relative viability (NCI-H322M; first compound 1.265 µM): 0.782
relative viability (NCI-H322M; first compound 4 µM): 0.795
relative viability (NCI-H1944; first compound 0.04 µM): 0.888
relative viability (NCI-H1944; first compound 0.1265 µM): 0.706
relative viability (NCI-H1944; first compound 0.4 µM): 0.833
relative viability (NCI-H1944; first compound 1.265 µM): 0.808
relative viability (NCI-H1944; first compound 4 µM): 0.864
relative viability (NCI-H1395; first compound 0.04 µM): 1.08
relative viability (NCI-H1395; first compound 0.1265 µM): 1.04
relative viability (NCI-H1395; first compound 0.4 µM): 1.19
relative viability (NCI-H1395; first compound 1.265 µM): 1.08
relative viability (NCI-H1395; first compound 4 µM): 0.971
relative viability (NCI-H1651; first compound 0.04 µM): 0.869
relative viability (NCI-H1651; first compound 0.1265 µM): 0.863
relative viability (NCI-H1651; first compound 0.4 µM): 0.968
relative viability (NCI-H1651; first compound 1.265 µM): 0.894
relative viability (NCI-H1651; first compound 4 µM): 0.929
relative viability (EMC-BAC-2; first compound 0.04 µM): 0.714
relative viability (EMC-BAC-2; first compound 0.1265 µM): 0.714
relative viability (EMC-BAC-2; first compound 0.4 µM): 0.72
relative viability (EMC-BAC-2; first compound 1.265 µM): 0.74
relative viability (EMC-BAC-2; first compound 4 µM): 0.729
relative viability (NCI-H650; first compound 0.04 µM): 1.24
relative viability (NCI-H650; first compound 0.1265 µM): 0.936
relative viability (NCI-H650; first compound 1.265 µM): 1.06
relative viability (NCI-H650; first compound 4 µM): 1.13
relative viability (SK-MES-1; first compound 0.04 µM): 1.11
relative viability (SK-MES-1; first compound 0.1265 µM): 0.849
relative viability (SK-MES-1; first compound 0.4 µM): 0.912
relative viability (SK-MES-1; first compound 1.265 µM): 0.807
relative viability (SK-MES-1; first compound 4 µM): 0.868
relative viability (NCI-H2085; first compound 0.04 µM): 0.923
relative viability (NCI-H2085; first compound 0.1265 µM): 0.94
relative viability (NCI-H2085; first compound 0.4 µM): 1.04
relative viability (NCI-H2085; first compound 1.265 µM): 0.97
relative viability (NCI-H2085; first compound 4 µM): 0.893
relative viability (H3255; first compound 0.04 µM): 0.649
relative viability (H3255; first compound 0.1265 µM): 0.666
relative viability (H3255; first compound 0.4 µM): 0.514
relative viability (H3255; first compound 1.265 µM): 0.705
relative viability (H3255; first compound 4 µM): 0.618
relative viability (NCI-H2087; first compound 0.04 µM): 1.1
relative viability (NCI-H2087; first compound 0.1265 µM): 0.96
relative viability (NCI-H2087; first compound 0.4 µM): 1.3
relative viability (NCI-H2087; first compound 1.265 µM): 0.964
relative viability (NCI-H2087; first compound 4 µM): 1.1
relative viability (NCI-H1793; first compound 0.04 µM): 0.554
relative viability (NCI-H1793; first compound 0.1265 µM): 0.659
relative viability (NCI-H1793; first compound 0.4 µM): 0.569
relative viability (NCI-H1793; first compound 1.265 µM): 0.635
relative viability (NCI-H1793; first compound 4 µM): 0.647
relative viability (HCC-827; first compound 0.04 µM): 0.991
relative viability (HCC-827; first compound 0.1265 µM): 1.01
relative viability (HCC-827; first compound 0.4 µM): 0.828
relative viability (HCC-827; first compound 1.265 µM): 1
relative viability (HCC-827; first compound 4 µM): 0.786
relative viability (LCLC-103H; first compound 0.04 µM): 0.987
relative viability (LCLC-103H; first compound 0.1265 µM): 0.923
relative viability (LCLC-103H; first compound 0.4 µM): 1.02
relative viability (LCLC-103H; first compound 1.265 µM): 0.954
relative viability (LCLC-103H; first compound 4 µM): 0.96
relative viability (NCI-H1563; first compound 0.04 µM): 0.937
relative viability (NCI-H1563; first compound 0.1265 µM): 0.862
relative viability (NCI-H1563; first compound 0.4 µM): 1.03
relative viability (NCI-H1563; first compound 1.265 µM): 0.863
relative viability (NCI-H1563; first compound 4 µM): 0.979
relative viability (NCI-H520; first compound 0.04 µM): 0.848
relative viability (NCI-H520; first compound 0.1265 µM): 0.895
relative viability (NCI-H520; first compound 0.4 µM): 0.912
relative viability (NCI-H520; first compound 1.265 µM): 0.855
relative viability (NCI-H520; first compound 4 µM): 0.852
relative viability (EPLC-272H; first compound 0.04 µM): 0.824
relative viability (EPLC-272H; first compound 0.1265 µM): 0.963
relative viability (EPLC-272H; first compound 0.4 µM): 1.08
relative viability (EPLC-272H; first compound 1.265 µM): 1.05
relative viability (EPLC-272H; first compound 4 µM): 1.06
relative viability (NCI-H1993; first compound 0.04 µM): 0.581
relative viability (NCI-H1993; first compound 0.1265 µM): 0.68
relative viability (NCI-H1993; first compound 0.4 µM): 0.678
relative viability (NCI-H1993; first compound 1.265 µM): 0.634
relative viability (NCI-H1993; first compound 4 µM): 0.707
